The text below walks through data of patent publication US7816353B2 (Exelixis, Inc., priority 2003, dated 2010).

The experiment has as its target T1, p70S6K (Homo sapiens, UniProt P23443, T412E).
T1 construct: human p70S6 kinase domain residues 1-421, containing a T412E mutation; made in house
The experiment can be described thus: p70S6 Kinase Assay (Luciferase-Coupled Chemiluminescent Kinase assay, LCCA). In kind it is biochemical. The following applies: 5 μM ATP. The procedure:
Kinase activity and compound inhibition are investigated using one or more of the three assay formats described below. The ATP concentrations for each assay are selected to be close to the Michaelis-Menten constant (KM) for each individual kinase. Dose-response experiments are performed at 10 different inhibitor concentrations in a 384-well plate format. […] Y=Min+(Max−Min)/(1+(X/IC50)^H) Equation (2) p70S6 Kinase Assay
Biochemical activity of p70S6 kinase was assessed using a Luciferase-Coupled Chemiluminescent Kinase assay (LCCA) format. Kinase activity was measured as the percent ATP remaining following the kinase reaction. Remaining ATP was detected by luciferase-luciferin-coupled chemiluminescence. […] The mixture is incubated at ambient temperature for 2 hours after which 20 μL luciferase-luciferin mix is added and the chemiluminescent signal read using a Wallac Victor^2 reader.

Where [1] appears, read: human p70S6 kinase domain residues 1-421, T412E, read-out: p70S6K IC50.

Each structure is given as a SMILES string. Read-outs that look alike come from different tables or passages of the source. A value given as a limit tells only on which side of the number the result lay.

T1 sequence (P23443 1-421 T412E): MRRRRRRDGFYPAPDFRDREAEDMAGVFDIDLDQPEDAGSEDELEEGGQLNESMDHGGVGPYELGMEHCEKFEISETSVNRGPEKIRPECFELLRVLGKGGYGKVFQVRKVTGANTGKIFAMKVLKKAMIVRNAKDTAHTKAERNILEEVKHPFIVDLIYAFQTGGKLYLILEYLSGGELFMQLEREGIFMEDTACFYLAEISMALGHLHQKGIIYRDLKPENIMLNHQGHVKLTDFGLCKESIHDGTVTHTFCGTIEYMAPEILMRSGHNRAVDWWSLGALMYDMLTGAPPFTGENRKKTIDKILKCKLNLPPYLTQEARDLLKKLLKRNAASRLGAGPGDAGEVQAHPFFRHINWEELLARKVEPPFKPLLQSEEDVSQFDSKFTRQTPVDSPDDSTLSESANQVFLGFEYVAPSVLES

On to `CSc1nc(N)nc(N[C@@H](CCC(=O)O)C(=O)Nc2cccc(C(F)(F)F)c2)c1C#N` [Example 149, N~2~-[2-amino-5-cyano-6-(methylthio)pyrimidin-4-yl]-N-[3-(trifluoromethyl)phenyl]-Lalpha-glutamine], for which the IC50 under setting [1] was 500 to 2000 nM.

With `CCOc1nc(N)nc(N[C@@H](C)C(=O)Nc2cc(C(=O)NCCCN3CCN(C)CC3)cc(C(F)(F)F)c2)c1C#N` [Example 161], the concentration for half-maximal inhibition (IC50) under setting [1] is greater than 2000 nM.

On to `Cc1nc2oc(C(=O)Nc3cccc(C(F)(F)F)c3)c(N)c2c(C)c1[N+](=O)[O-]` [Example 98, 3-amino-4,6-dimethyl-5-nitro-N-[3-(trifluoromethyl)phenyl]furo[2,3-b]pyridine-2-carboxamide], for which the 50% inhibitory concentration (IC50) under setting [1] is greater than 2000 nM.

As to `COc1nc(N)nc(N(C)[C@@H](C)C(=O)Nc2cccc(OC(F)(F)F)c2)c1C#N` [Example 188, N~2~-[2-amino-5-cyano-6-(methyloxy)pyrimidin-4-yl]-N~2~-methyl-N-{3-[(trifluoromethyl)oxy]phenyl}-L-alaninamide], the IC50 under setting [1] was greater than 2000 nM.

For the molecule `COc1ccc(C(F)(F)F)cc1NC(=O)CSc1nc(N)nc(SC)c1C#N` [Example 54, 2-{[2-mino-5-cyano-6-(methylthio)pyrimidin-4-yl]thio}-N-[2-(methyloxy)-5-(trifluoromethyl)phenyl]acetamide], under setting [1], the IC50 was 500 to 2000 nM.

On to `CSc1nc(N)nc(SCC(=O)Nc2cc(C(F)(F)F)ccc2Cl)c1C#N` [Example 55, 2-{[2-amino-5-cyano-6-(methylthio)pyrimidin-4-yl]thio}-N-[2-chloro-5-(trifluoromethyl)phenyl]acetamide], for which the IC50 under setting [1] fell in the range of 500 to 2000 nM.

With `CSc1nc(N)nc(N(CCC2CCOCC2)CC(=O)Nc2cccc(C(F)(F)F)c2)c1C#N` [Example 105, N^2-[2-amino-5-cyano-6-(methylthio)pyrimidin-4-yl]-N^2-[2-(tetrahydro-2H-pyran-4-4yl)ethyl]-N-[3-(trifluoromethyl)phenyl]glycinamide], the half-maximal inhibitory concentration (IC50) under setting [1] is greater than 2000 nM.

In the case of `CSc1nc(N)nc(N(C)CC(=O)Nc2cccc(C(C)C)c2)c1C#N` [Example 110, N^2-[2-amino-5-cyano-6-(methylthio)pyrimidin-4-yl]-N^2-methyl-N-[3-(1-methylethyl)phenyl]glycinamide], the IC50 under setting [1] was greater than 2000 nM.

Regarding `CCOc1nc(N)nc(N[C@@H](CCC(=O)NN)C(=O)Nc2cccc(C(F)(F)F)c2)c1C#N` [Example 177, ′2-(2-amino-5-cyano-6-ethoxy-pyrimidin-4-ylamino)-4-hydrazinocarbonyl-N-(3-trifluoromethyl-phenyl)-butyramide], under setting [1], the concentration for half-maximal inhibition (IC50) was greater than 2000 nM.

As to `CSc1nc(N)nc(O[C@H](C)C(=O)Nc2cccc(C(F)(F)F)c2)c1C#N` [Example 68, (2R)-2-{[2-amino-5-cyano-6-(methylthio)pyrimidin-4-yl]oxy}-N-[3-(trifluoromethyl)phenyl]propanamide], the IC50 (p70S6K IC50, human p70S6 kinase domain residues 1-421, T412E) fell in the range of 500 to 2000 nM.

With `CSc1nc(NC(C)=O)nc(SCC(=O)Nc2cccc(C(F)(F)F)c2)c1C#N` [Example 41, 2-{[2-(acetylamino)-5-cyano-6-(methylthio)pyrimidin-4-yl]thio}-N-[3-(trifluoromethyl)phenyl]acetamide], under setting [1], the IC50 is 50 to 500 nM.

On to `CSc1nc(N)nc(N[C@@H](CCCNC(=N)N)C(=O)Nc2cccc(C(F)(F)F)c2)c1C#N` [Example 117, N^2-[2-amino-5-cyano-6-(methylthio)pyrimidin-4-yl]-N-[3-(trifluoromethyl)phenyl]-L-argininamide], for which the half-maximal inhibitory concentration (IC50) under setting [1] was greater than 2000 nM.

For `CSc1nc(N)nc(N(CCN(C)C)CC(=O)Nc2cccc(C(F)(F)F)c2)c1C#N` [Example 87, N^2-[2-amino-5-cyano-6-(methylthio)pyrimidin-4-yl]-N^2-[2-(dimethylamino)ethyl]-N-[3-(trifluoromethyl)phenyl]glycinamide], the IC50 under setting [1] is greater than 2000 nM.

On to `CSc1cc(SCC(=O)Nc2cccc(C(F)(F)F)c2)nc(N)n1` [Example 48, 2-{[2-amino-6-(methylthio)pyrimidin-4-yl]thio}-N-[3-(trifluoromethyl)phenyl]acetamide], for which the IC50 under setting [1] lay in the range of 50 to 500 nM.

For the molecule `COC(=O)CC[C@H](Nc1nc(N)nc(SC)c1C#N)C(=O)Nc1cccc(C(F)(F)F)c1` [Example 146, methyl N~2~-[2-amino-5-cyano-6-(methylthio0pyrimidin-4-yl]-N-'-(trifluoromethyl)phenyl]-L-alpha-glutaminate], the IC50 under setting [1] lay within 500 to 2000 nM.

Consider `CSc1nc(N)nc(N(C)CC(=O)Nc2cccc(C(F)(F)F)c2)c1C#N` [Example 72, N^2-[2-amino-5-cyano-6-(methylthio)pyrimidin-4-yl]-N^2-methyl-N-[3-(trifluoromethyl)phenyl]glycinamide], for which the IC50 under setting [1] is greater than 2000 nM.

For `CSc1nc(N)nc(N[C@@H](CCCCN(C)C)C(=O)Nc2cccc(C(F)(F)F)c2)c1C#N` [Example 171, N~2~-[2-amino-5-cyano-6-(methylthio)pyrimidin-4-yl]-N~6~,N~6~-dimethyl-N-[3-(trifluoromethyl)phenyl]-L-lysinamide], under setting [1], the IC50 is greater than 2000 nM.

For `CSc1nc(N)nc(OC(C(=O)Nc2cccc(C(F)(F)F)c2)C(C)C)c1C#N` (stereo in doubt) [Example 70, (2S)-2-{[2-amino-5-cyano-6-(methylthio)pyrimidin-4-yl]oxy}-3-methyl-N-[3-(trifluoromethyl)phenyl]butanamide], the IC50 under setting [1] was greater than 2000 nM.

Regarding `CSc1nc(N)nc(SCC(=O)Nc2cccc(C(F)(F)F)c2C)c1C#N` [Example 53, 2-{[2-amino-5-cyano-6-(methylthio)pyrimidin-4-yl]thio}-N-[2-methyl-3-(trifluoromethyl)phenyl]acetamide], the concentration for half-maximal inhibition (IC50) under setting [1] is 500 to 2000 nM.

On to `CCOc1nc(N)nc(NNC(=O)Nc2cccc(C(F)(F)F)c2)c1C#N` [Example 127, 2-[2-amino-5-cyano-6-(ethyloxy)pyrimidin-4-yl]-N-[3-(trifluoromethyl)phenyl]hydrazinecarboxamide], for which the IC50 under setting [1] was greater than 2000 nM.

Turning to `COc1nc(N)nc(N[C@@H](CN(C)C)C(=O)Nc2cccc(C(F)(F)F)c2)c1C#N` [Example 178, N~2~-[2-amino-5-cyano-6-(methyloxy)pyrimidin-4-yl]-3-(dimethylamino)-N-[3-(trifluoromethyl)phenyl]-L-alaninamide], the 50% inhibitory concentration (IC50) under setting [1] was greater than 2000 nM.

Take `N#Cc1cnc(N2CCOCC2)nc1NCC(=O)Nc1cccc(C(F)(F)F)c1` [Example 76]: under setting [1], the half-maximal inhibitory concentration (IC50) is greater than 2000 nM.

Take `CCOc1nc(N)nc(N[C@@H](CCC(=O)O)C(=O)Nc2cccc(C(F)(F)F)c2)c1C#N` [Example 173, N~2~-[2-amino-5-cyano-6-(ethyloxy)pyrimidin-4-yl]-N-[3-(trifluoromethyl)phenyl]-L-alpha-glutamine]: the IC50 under setting [1] was greater than 2000 nM.

For `CSc1nc(N)nc(N[C@@H](CCC(N)=O)C(=O)Nc2cccc(C(F)(F)F)c2)c1C#N` [Example 139], under setting [1], the 50% inhibitory concentration (IC50) is 50 to 500 nM.

On to `CSc1nc(N)nc(N[C@@H](C)C(=O)Nc2cccc(C(=O)N3CCN(C)CC3)c2)c1C#N` [Example 82, N^2-[2-amino-5-cyano-6-(methylthio)pyrimidin-4-yl]-N-{3-[(4-methylpiperazin-1-yl)carbonyl]phenyl}-L-alaninamide], for which the IC50 under setting [1] is greater than 2000 nM.

Take `CSc1nc(N)nc(NCC(=O)Nc2cccc(C(F)(F)F)c2)c1/C=N/N` [Example 58, N^2-[2-amino-5-[(E)-hydrazonomethyl]-6-(methylthio)pyrimidin-4-yl]-N-[3-(trifluoromethyl)phenyl]glycinamide]: the IC50 under setting [1] was in the range of 500 to 2000 nM.
